The data set can be described thus: gradient 5% acetonitrile 3 min, to 50% in 2 min, to 85% in 15 min, held 3 min, 100 µL/min. The settings on record: column: Zorbax Extend-C18 2.1 x 50 mm; eluents: water / acetonitrile, 0.1% formic acid. In short, it runs like this:
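Over 3 months, pure standards in mixtures of ~100 molecules were run by HPLC coupled to a quadrupole time-of-flight mass spectrometer in positive and negative ionization mode. The column was a Zorbax Extend-C18 (2.1 × 50 mm, 1.8 μm) at 100 μL/min, eluted with water and acetonitrile each holding 0.1% formic acid, with 40 μL dead and 900 μL dwell volumes. Retention time was determined from adduct peaks chosen by software and checked manually.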
Compound `O=C(c1ccc2[nH]ccc2c1)N1CCN(c2cc(-c3ccccc3)[nH]n2)CC1` gave an RP-LC retention time of 728 s. Then `O=C(Nc1ccc(F)cc1)c1nnc(COCC(=O)N2CCN(c3ccccn3)CC2)s1`, with 623 s; and `CCOc1ccccc1NC(=O)N1CC(n2ccnc2C)C1`, with 639 s. Then `COc1cccc(CNC(=O)C2CCCN2S(=O)(=O)c2ccc3c(c2)C(C)(C)C(=O)N3C)c1` (stereo not drawn), with 821 s; and `CC(C)c1ccc(NC(=O)Cn2cccc2-c2nc(-c3ccc4c(c3)OCO4)no2)cc1`, with 1220 s.

`CCn1nccc1-c1cccc(-c2noc(-c3ccc(Cl)cc3)n2)c1` came in with an RP-LC retention time of 1340 s. Then `Cn1c(=O)n([C@H]2CCCN(C(=O)Nc3ccc4c(c3)OCCO4)C2)c2ncccc21`, with 684 s. For `COCCC1CCN(C(=O)CN(C)C(=O)c2ccnn2C)CC1` the value was 586 s; for `COc1ccc(N2CCN(C(=O)c3ccc(S(=O)(=O)N4CCCC4)cc3)CC2)nn1`, 579 s; for `Cn1cc(C2=CCN(CC(=O)N3CCN(c4ccc(F)cc4)CC3)CC2)cn1`, 612 s.

For the compound `CCC(=O)N1CCc2sc(S(=O)(=O)N3CCN(c4ccccc4C)CC3)cc2C1`, the RP-LC retention time turned out to be 1030 s. `CCc1c(C2CCN(C(=O)Nc3ccc(OC)cc3)CC2)noc1N` yielded an RP-LC retention time of 693 s. Take `O=C(Nc1ccc(-c2cn3cccnc3n2)cc1)c1cccc(Br)c1`: the RP-LC retention time was 702 s.

In the case of `O=C(Nc1ccc2c(c1)OCO2)N1CCC(N2CCN(Cc3ccccc3)C(=O)C2=O)CC1`, the RP-LC retention time is 706 s. For `Cc1cnc(-c2ccncc2)n1C1CCN(C(=O)C2(C)CCCCC2)C1` (stereo not drawn) the value was 626 s; for `O=S(=O)(NCC(O)(c1ccccc1)C(F)(F)F)c1cc(F)ccc1F` (stereo not drawn), 870 s. For `Cc1ccc(-c2noc(CN3N=NC4C(=O)N(c5ccc(C)cc5)C(=O)C43)n2)cc1` (stereo not drawn) the value was 1020 s; for `CCOC(=O)c1c(C)oc2nc(C)nc(NCCCN(CC)c3cccc(C)c3)c12`, 812 s. Then `Cc1nn(C)c(C)c1S(=O)(=O)N1CCC(Cc2nncn2-c2ccccc2)CC1`, with 671 s. `COc1cc(OC)c(NC(=O)N2CCC(n3c(C)nc4cccnc43)CC2)cc1Cl`: the RP-LC retention time was determined as 711 s. Regarding `O=c1c2cc(-c3ccc4c(c3)OCO4)nn2ccn1Cc1nc(-c2cccc(C(F)(F)F)c2)no1`, the RP-LC retention time was 1110 s. For `CCC(c1cccs1)N1C(=O)[C@H]2CN(S(=O)(=O)c3ccc(F)c(F)c3)C[C@H]2C1=O` (stereo partly drawn) the value was 1020 s; for `CCCNC(=O)C1CCN(c2ccc(SCC(=O)Nc3ccc(C)cc3F)nn2)CC1`, 679 s; for `O=C(C1=CN(c2cccc(Cl)c2)c2cc(F)ccc2S1(=O)=O)N1CCCC1`, 868 s. For `N#CC1=C(N)Oc2c(ccc3cccnc23)C1c1ccccc1` (stereo not drawn) the value was 768 s; for `COc1ccc(CNC(=O)c2cn3cc(Cl)ccc3n2)cc1`, 811 s; for `O=C(Nc1ccc2c(c1)OCCO2)c1cn(-c2cc(N3CCCC3)ncn2)cn1`, 795 s. For the compound `COc1ccc(NC(=O)NCCCn2c(C(F)(F)F)nc3cccnc32)c(OC)c1`, the RP-LC retention time was determined as 708 s. For `O=C(CNC(=O)c1ccc(=O)[nH]c1)NCc1ccc(OCc2ccccc2)cc1` the value was 661 s; for `Cc1ccc(-n2cc3c(N4CCCC(C(=O)NCc5cccc(C(F)(F)F)c5)C4)ncnc3n2)cc1` (stereo not drawn), 772 s. Then `COc1cc(Cn2c(N)c(C#N)c3nc4ccccc4nc32)cc(OC)c1OC`, with 720 s; and `Cc1csc(-c2cc(S(=O)(=O)NCCN(C)C)cn2CC(=O)N2CCCCC2)n1`, with 630 s. Then `Cc1cc(C)cc(Nc2c(-c3ccc(O)cc3)nc3ncccn23)c1`, with 705 s; and `CCOC(=O)c1[nH]c(C)c(CCC(=O)N2CCC(C(=O)NCCc3ccco3)CC2)c1C`, with 743 s.

In turn, `CC(C)CC(NC(=O)c1ccccc1)C(=O)Nc1nc2ccccc2[nH]1` (stereo not drawn) gave an RP-LC retention time of 725 s. Then `CCOc1ccccc1N1CCN(C(=O)c2csc(C(=O)NC3CC3)n2)CC1`, with 790 s; and `Cc1ccc(C(=O)N2CCCC2c2nc(-c3ccc(F)cc3F)no2)s1` (stereo not drawn), with 1010 s; and `COc1cc(Cl)ccc1-c1nc(-c2ccc3c(c2)oc(=O)n3C(C)C)no1`, with 1220 s. Then `C=CCn1c(-c2ccc([N+](=O)[O-])cc2)nc2nc3ccccc3nc21`, with 825 s. For `COc1ccc(Cl)cc1NC(=O)C1CC(=O)N(c2cccc(NC(C)=O)c2)C1` (stereo not drawn) the value was 740 s; for `O=C(c1[nH]nc2c1COc1ccccc1-2)N1CC(c2noc(COc3ccc(F)cc3)n2)C1`, 943 s. `O=C1NCCN2CC3(CCN(S(=O)(=O)Cc4ccccc4)CC3)CC12` (stereo not drawn) returned an RP-LC retention time of 594 s. Then `Cn1nc(-c2nc(C3CC3)no2)c2c1CCN(S(=O)(=O)c1cccs1)C2`, with 861 s; and `COc1cccc(Oc2nccn3c(=O)n(CC(=O)Nc4cccc(C(F)(F)F)c4)nc23)c1`, with 919 s.

As to `Cc1cc(N2CCN(C)CC2)nc2ccc(NC(=S)N3CCC(Cc4ccccc4)CC3)cc12`, the RP-LC retention time was determined as 636 s. For `Cc1cc(C)cc(C(=O)Nc2cnc(N3CCOCC3)nc2)c1` the value was 824 s; for `CCN(CC)S(=O)(=O)c1ccc2c(c1)CC(C(=O)N1CCCCCC1)N2C(C)=O` (stereo not drawn), 839 s. Then `O=C(NCc1cccc(Cl)c1)c1ccc(-c2nc3cccnc3n2C2CCCCC2)cc1`, with 1050 s. For `COc1ccccc1CCC(=O)NC(C(=O)Nc1nc2ccccc2[nH]1)C(C)C` (stereo not drawn) the value was 721 s; for `CN(C)c1nc(Cl)nc2c1nc(Cl)n2C1CCCCO1` (stereo not drawn), 1130 s. `CN(C)CCCNC(=O)C1CCN(c2nc3ccc(-c4ccsc4)nc3s2)CC1`: the RP-LC retention time stood at 644 s. For `CC(C)n1c(=O)oc2cc(S(=O)(=O)N3CCN(C(=O)C4(c5ccccc5)CC4)CC3)ccc21` the value was 902 s. Then `CCCn1c(C)cnc1C1CN(S(=O)(=O)c2cccc(Cl)c2)C1`, with 669 s; and `CCOc1ccc(S(=O)(=O)N2CCCC2C(=O)Nc2nccs2)cc1` (stereo not drawn), with 818 s. For `CCn1c(CCNC(=O)c2ccc(C)c(C)c2)nc2cccnc21` the value was 661 s; for `COc1ccc(Cl)cc1NC(=O)CSc1nnc(-c2ccco2)n1-n1cccc1`, 885 s; for `CNC(=O)c1cc2c(=O)n(CC(C)C)c3ccccc3n2n1`, 793 s. In the case of `COc1ccc(CC(=O)Nc2ccc(-c3nc(Cn4cccn4)c(C)o3)cc2)cc1`, the RP-LC retention time is 838 s. `CCCN(C)S(=O)(=O)c1cc(-c2nc(C)cs2)n(CC(=O)N2CCCCC2)c1` registered an RP-LC retention time of 967 s. For `COc1ccc2c(c1)CC(C(=O)NCc1ccc(OC)cc1OC)CO2` (stereo not drawn) the value was 894 s; for `Cn1nnnc1C1CCCN(C(=O)C2CC2)C1` (stereo not drawn), 605 s; for `Cc1ccc(C)c(N2CCN(c3ccnc(SCC(=O)NCCC4=CCCCC4)n3)CC2)c1`, 1090 s. Then `CC1CCN(C(=O)C2=CN(c3cccc(F)c3)c3ccccc3S2(=O)=O)CC1`, with 908 s; and `CCOC(=O)N1CCN(C(=O)CSc2ccc(C)cc2)CC1`, with 765 s; and `Cc1c(Cl)cccc1NC(=O)Cn1nc(C(=O)N2CCCCC2)c2ccccc21`, with 917 s. Then `CCOc1ccc(C(=O)n2nc(C)c(S(=O)(=O)N3CCCCC3)c2C)cc1`, with 997 s; and `CCOC(=O)c1noc2ncnc(NCCCN3CCCc4ccccc43)c12`, with 1240 s. Compound `COC(=O)Nc1nc(CC(=O)Nc2ccc(F)c(Cl)c2)cs1` had an RP-LC retention time of 744 s.

Take `Cc1noc(CNC(=O)C2CCN(C(=O)Nc3ccccc3C(F)(F)F)CC2)n1`: the RP-LC retention time worked out at 647 s. As for `Cc1cc(S(=O)(=O)N2CCOC23CCN(C(=O)C2CC2)CC3)ccc1F`, the RP-LC retention time worked out at 789 s. `COC(=O)c1ccc2c(=O)n(Cc3cccc(OC)c3)c(N3CCOCC3)nc2c1` had an RP-LC retention time of 936 s. `CC(C)NC(=O)C1CCCN(c2nc3ncn(CC(=O)NC4CCCC4)c(=O)c3s2)C1` (stereo not drawn) showed an RP-LC retention time of 1210 s.

The compound `Cc1ccc2c(c1)N(C(=O)Cn1c(=O)n(C3CC3)c(=O)c3nscc31)CCO2` yielded an RP-LC retention time of 773 s.

For `Cc1nc(-c2ccc3c(c2)n(CC(=O)NC2CCCCCC2)c(=O)n3C(C)C)no1`, the RP-LC retention time came to 841 s.

In turn, `Cc1ccc(CNC(=O)c2nnc(-c3ccc(S(=O)(=O)N4CCOCC4)cc3)o2)cc1` yielded an RP-LC retention time of 863 s. For `O=C1CN(C(=O)COc2cccc3ccccc23)c2ccccc2N1` the value was 861 s. For `Cc1cccc(N2CCN(c3ccc4nnc(CCc5nc(-c6ccc(F)cc6)no5)n4n3)CC2)c1` the value was 1130 s; for `COc1cccc(-c2ccc(=O)n(CCc3nc(-c4cc(OC)cc(OC)c4)no3)n2)c1`, 955 s.

The values above are taken from the METLIN SMRT retention time set (Domingo-Almenara et al. 2019).
